Laboratory results published in article PMC9294463, “Green Synthesis of Thiazolidine-2,4-dione Derivatives and Their Lipoxygenase Inhibition Activity With QSAR and Molecular Docking Studies” (Frontiers in Chemistry, 2022).

Molecular target: T1, soybean lipoxygenase (Glycine max, UniProt P08170)
T1 construct: gene LOX1.1
T1 sequence (P08170 1-839): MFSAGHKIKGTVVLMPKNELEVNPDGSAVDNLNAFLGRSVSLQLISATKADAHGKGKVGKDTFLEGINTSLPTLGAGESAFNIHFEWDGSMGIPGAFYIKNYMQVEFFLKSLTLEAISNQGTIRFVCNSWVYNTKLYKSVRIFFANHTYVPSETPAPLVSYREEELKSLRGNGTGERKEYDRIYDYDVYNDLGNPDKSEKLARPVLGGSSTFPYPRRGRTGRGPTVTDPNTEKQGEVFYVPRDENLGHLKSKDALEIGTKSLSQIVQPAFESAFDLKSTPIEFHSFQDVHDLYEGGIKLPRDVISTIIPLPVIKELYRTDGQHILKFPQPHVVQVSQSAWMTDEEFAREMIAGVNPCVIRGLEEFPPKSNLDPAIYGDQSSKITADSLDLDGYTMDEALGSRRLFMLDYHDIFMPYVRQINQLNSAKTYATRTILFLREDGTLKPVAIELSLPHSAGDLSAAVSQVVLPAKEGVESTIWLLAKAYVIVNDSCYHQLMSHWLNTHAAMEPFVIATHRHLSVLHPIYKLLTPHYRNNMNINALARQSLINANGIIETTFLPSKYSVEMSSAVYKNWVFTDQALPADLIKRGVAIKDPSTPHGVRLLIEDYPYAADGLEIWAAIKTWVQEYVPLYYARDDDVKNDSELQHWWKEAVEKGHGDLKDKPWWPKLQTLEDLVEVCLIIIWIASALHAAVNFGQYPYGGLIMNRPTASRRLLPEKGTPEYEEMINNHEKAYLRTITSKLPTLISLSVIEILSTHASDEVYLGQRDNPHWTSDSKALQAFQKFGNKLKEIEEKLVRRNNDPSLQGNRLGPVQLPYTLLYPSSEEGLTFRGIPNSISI
Assay: soybean lipoxygenase inhibition assay, % inhibition at […] (standard)
Format: biochemical

## C[C@H](Cc1ccc(O)c(O)c1)[C@@H](C)Cc1ccc(O)c(O)c1 [NDGA, nordihydroguaiaretic acid]
  inhibition at 100 µM: 80.8%
